Reference: article PMC6471225 (Molecules, 2019)

How the values were obtained:
[1] = test system: TBEV Neudoerfl strain; format: cell-based, tick-borne encephalitis virus
[2] = test system: TBEV Neudoerfl strain; test: microbe, parasite or virus in culture; format: cell-based, tick-borne encephalitis virus; conditions: for IC50: Tick-borne encephalitis virus, A549, 72 h, read-out: half-maximum inhibitory concentration (IC50), reduction of viral titer by 50%
[3] = test system: TBEV Hypr strain; format: cell-based, tick-borne encephalitis virus
[4] = in vitro; conditions: human, cytotoxic concentration (CC50) required to reduce cell viability by 50%
[5] = test system: TBEV Hypr strain; format: cell-based, tick-borne encephalitis virus; remark: listed apart in the source
[6] = test system: TBEV E and prM proteins; format: cell-based, tick-borne encephalitis virus
[7] = test system: A549 cells; conditions: human

SMILES: CC(=O)O[C@H]1[C@H](C)O[C@H](OC[C@H]2O[C@@H](n3ccc(=O)[nH]c3=O)[C@@H]3OC(C)(C)O[C@@H]32)C[C@@H]1O[Si](C)(C)C(C)(C)C [Compound 1]
- inhibition of TBEV infection, size and number of plaques [1]: minor or no antiviral effect
- effect on viral growth [2]: did not affect viral growth
- effect on viral growth [3]: did not affect viral growth
- CC50 [4]: 74 µM

SMILES: CC(=O)O[C@H]1[C@H](C)O[C@H](OC[C@H]2O[C@@H](n3ccc(=O)n(C(=O)c4ccccc4)c3=O)[C@@H]3OC(C)(C)O[C@@H]32)C[C@@H]1O[Si](C)(C)C(C)(C)C [Compound 2]
- cell viability after inhibitory treatment (protection from TBEV-induced CPE) [5]: ~99%
- inhibition of TBEV infection, size and number of plaques [1]: nearly a complete inhibition of TBEV infection
- plaque formation [1]: no plaques were detected
- reduction of number of plaques vs DMSO-treated infected cells [1]: 98%
- TBEV titer [2]: undetectable levels
- selectivity index (SI) CC50/IC50 [2]: 26.6
- IC50 [2]: 5.3 µM
- CC50 [4]: 141 µM

SMILES: CC1(C)OC2C(COC3CC(OCc4ccccc4)C(OCc4ccccc4)C(COCc4ccccc4)O3)OC(n3ccc(=O)[nH]c3=O)C2O1 (stereo not shown) [Compound 3]
- inhibition of TBEV infection, size and number of plaques [1]: minor or no antiviral effect
- effect on viral growth [2]: did not affect viral growth
- effect on viral growth [3]: did not affect viral growth
- CC50 [4]: 97 µM

SMILES: CC1(C)OC2C(COC3CC(OCc4ccccc4)C(OCc4ccccc4)C(COCc4ccccc4)O3)OC(n3ccc(=O)n(C(=O)c4ccccc4)c3=O)C2O1 (stereo not shown) [Compound 4]
- cell viability after inhibitory treatment (protection from TBEV-induced CPE) [5]: ~99%
- inhibition of TBEV infection, size and number of plaques [1]: nearly a complete inhibition of TBEV infection
- plaque formation [1]: no plaques were detected
- reduction of number of plaques vs DMSO-treated infected cells [1]: 90%
- reduction of the viral titer vs infected mock-treated cells [2]: 10^4 fold
- selectivity index (SI) CC50/IC50 [2]: 85
- virus detection in supernatant [2]: no virus was detected
- IC50 [2]: 1.4 µM
- synthesis of E and prM proteins [6]: completely inhibited the synthesis of both proteins
- CC50 [4]: 119 µM

SMILES: CC1(C)OC2C(COC3CC(OCc4ccccc4)C(OCc4ccccc4)C(CO[Si](C)(C)C(C)(C)C)O3)OC(n3ccc(=O)[nH]c3=O)C2O1 (stereo not shown) [Compound 5]
- CC50 [4]: 79 µM

SMILES: CC(=O)OCC1OC(OCC2OC(n3ccc(=O)[nH]c3=O)C3OC(C)(C)OC23)CC(OC(C)=O)C1OC(C)=O (stereo not shown) [Compound 6]
- CC50 [4]: 196 µM

SMILES: CC(=O)OCC1OC(OCC2OC(n3ccc(=O)[nH]c3=O)C3OC(C)(C)OC23)CC(OC(C)=O)C1OC(C)=O (stereo not shown) [Compound 7]
- CC50 [7]: 223 µM

SMILES: CC(=O)OCC1OC(OCC2OC(n3ccc(=O)n(Cc4ccccc4)c3=O)C3OC(C)(C)OC23)CC(OC(C)=O)C1OC(C)=O (stereo not shown) [Compound 8]
- CC50 [4]: 225 µM

SMILES: O=c1ccn(C2OC(COC3CC(O)C(O)C(CO)O3)C(O)C2O)c(=O)[nH]1 (stereo not shown) [Compound 9]
- CC50 [4]: 238 µM

SMILES: CC1(C)OC2C(COC3CC(OCc4ccccc4)C(OCc4ccccc4)C(CO[Si](C)(C)C(C)(C)C)O3)OC(n3ccc(=O)n(C(=O)c4ccccc4)c3=O)C2O1 (stereo not shown) [Compound 10]
- cell viability after inhibitory treatment (protection from TBEV-induced CPE) [5]: 90%
- inhibition of TBEV infection, size and number of plaques [1]: nearly a complete inhibition of TBEV infection
- reduction of number of plaques vs DMSO-treated infected cells [1]: 82–96%
- selectivity index (SI) CC50/IC50 [2]: 18.6
- IC50 [2]: 6.5 µM
- CC50 [4]: 121 µM

SMILES: CC1(C)OC2C(COC3CC(OCc4ccccc4)C(OCc4ccccc4)C(CO)O3)OC(n3ccc(=O)n(C(=O)c4ccccc4)c3=O)C2O1 (stereo not shown) [Compound 11]
- cell viability after inhibitory treatment (protection from TBEV-induced CPE) [5]: 81%
- inhibition of TBEV infection, size and number of plaques [1]: nearly a complete inhibition of TBEV infection
- reduction of number of plaques vs DMSO-treated infected cells [1]: 82–96%
- selectivity index (SI) CC50/IC50 [2]: 13.8
- IC50 [2]: 10.2 µM
- CC50 [4]: 141 µM
